From ChEMBL document CHEMBL1133831 (Bioorg Med Chem Lett, 2001) come the findings set out here.

Structures are written as SMILES.

For assay [1], the target named is T1, Muscarinic acetylcholine receptor M1 (Homo sapiens, UniProt P11229).
T1 sequence (P11229 whole entry): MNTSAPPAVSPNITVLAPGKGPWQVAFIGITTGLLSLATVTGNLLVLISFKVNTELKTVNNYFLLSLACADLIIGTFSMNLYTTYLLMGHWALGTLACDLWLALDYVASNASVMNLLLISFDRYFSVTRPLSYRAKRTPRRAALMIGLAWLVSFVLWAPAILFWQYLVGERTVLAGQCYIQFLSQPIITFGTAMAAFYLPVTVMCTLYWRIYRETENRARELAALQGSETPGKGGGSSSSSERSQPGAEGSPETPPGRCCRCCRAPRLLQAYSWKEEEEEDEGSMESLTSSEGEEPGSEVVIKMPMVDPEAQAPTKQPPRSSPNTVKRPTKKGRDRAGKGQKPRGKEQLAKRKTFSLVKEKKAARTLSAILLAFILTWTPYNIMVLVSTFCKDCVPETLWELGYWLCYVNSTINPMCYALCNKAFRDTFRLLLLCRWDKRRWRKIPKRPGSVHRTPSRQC
Description: Ability to displace [3H]oxotremorine from Muscarinic acetylcholine receptor M1 expressed in CHO cells. Type of assay: cell-based.

The target of assay [2] is T1, Muscarinic acetylcholine receptor M1. The experiment in a line: Ability to displace [3H]N-methylscopolamine from Muscarinic acetylcholine receptor M1 expressed in CHO cells. Type of assay: cell-based.

Broadly, the IC50 is the point on the concentration scale where inhibition reaches its midpoint. Read a high IC50 as weaker potency in that assay. Turning to `Clc1cc(CO/N=C2\CN3CCC2CC3)on1`, the IC50 is 57 nM in assay [1] and 13.8 µM in assay [2].

Consider `N#Cc1cc(CO/N=C2\CN3CCC2CC3)on1`, for which the half-maximal inhibitory concentration (IC50) in assay [1] was 81 nM; in assay [2] it was 8.7 µM.

For the molecule `Brc1cc(CO/N=C2\CN3CCC2C3)on1` (centres undefined), the IC50 in assay [1] was determined as 79 nM; in assay [2] it was 48.8 µM.

For `Clc1cc(CO/N=C/C2CN3CCC2CC3)on1` (centres undefined), the IC50 in assay [1] came out at 795 nM; in assay [2] it was 23.5 µM.

Turning to `Brc1cc(CO/N=C/C2CN3CCC2C3)on1` (centres undefined), the IC50 in assay [1] was 385 nM; in assay [2], 17.7 µM.

On to `Clc1cc(CO/N=C2\CN3CCC2C3)on1` (centres undefined), for which the values for the IC50 in assay [1] and in assay [2] were 23 nM and 36.3 µM, respectively.

As for `Clc1cc(CO/N=C/C2CN3CCC2C3)on1` (centres undefined), the IC50 turned out to be 44 nM in assay [1] and 14.9 µM in assay [2].

Regarding `O=C1CCCN1CC#CCN1CCCC1` [OXOTREMORINE], the IC50 was determined as 2.3 nM in assay [1] and 27.1 µM in assay [2].

As to `Brc1cc(CO/N=C2\CN3CCC2CC3)on1`, the figures for the IC50 in assay [1] and in assay [2] were 72 nM and 11.5 µM, respectively.

As for `COc1cc(CO/N=C/C2CN3CCC2C3)on1` (centres undefined), the IC50 came out at 287 nM in assay [1] and 16.7 µM in assay [2].

For the molecule `Brc1cc(CO/N=C/C2CN3CCC2CC3)on1` (centres undefined), the half-inhibitory concentration (IC50) in assay [1] turned out to be 1220 nM; in assay [2], 8.4 µM.

Regarding `COc1cc(CO/N=C/C2CN3CCC2CC3)on1` (centres undefined), the IC50 in assay [1] was found to be 1640 nM; in assay [2] it was 29.5 µM.

In the case of `COc1cc(CO/N=C2\CN3CCC2CC3)on1`, the IC50 is 362 nM in assay [1] and 35.6 µM in assay [2].

Consider `N#Cc1cc(CO/N=C/C2CN3CCC2CC3)on1` (centres undefined), for which the 50% inhibitory concentration (IC50) is 341 nM in assay [1] and 133 µM in assay [2].

As to `N#Cc1cc(CO/N=C2\CN3CCC2C3)on1` (centres undefined), the results for the IC50 in assay [1] and in assay [2] were 82 nM and 32.5 µM, respectively.

In the case of `COc1cc(CO/N=C2\CN3CCC2C3)on1` (centres undefined), the IC50 in assay [1] worked out at 131 nM; in assay [2], 40.5 µM.

Turning to `N#Cc1cc(CO/N=C/C2CN3CCC2C3)on1` (centres undefined), the IC50 in assay [1] was 1860 nM; in assay [2], 189 µM.
